Source: US7919508B2, “3-piperidinylisochroman-5-ols as dopamine agonists” (Aventis Pharmaceuticals Inc., priority 2004, dated 2011)
Where a name gives a salt, the structure may show the parent alone. Read-outs that look alike come from different tables or passages of the source.

Columns and labels:
[1] = target: T1, human dopamine D1 receptor (Homo sapiens, UniProt P21728); assay: [3H]-SCH-23390 binding to cloned human dopamine D1 receptors (CHO cell membranes)
T1 construct: A 1.4 Kb Hind III to Xho I fragment was subcloned into the vector pMMLV; expressed in transfected cells; host or cells: CHO cells, clone CHO-D1M#9 (plasmid pHD1MMLV), membranes
T1 sequence (P21728 whole entry, the tested form may be a part): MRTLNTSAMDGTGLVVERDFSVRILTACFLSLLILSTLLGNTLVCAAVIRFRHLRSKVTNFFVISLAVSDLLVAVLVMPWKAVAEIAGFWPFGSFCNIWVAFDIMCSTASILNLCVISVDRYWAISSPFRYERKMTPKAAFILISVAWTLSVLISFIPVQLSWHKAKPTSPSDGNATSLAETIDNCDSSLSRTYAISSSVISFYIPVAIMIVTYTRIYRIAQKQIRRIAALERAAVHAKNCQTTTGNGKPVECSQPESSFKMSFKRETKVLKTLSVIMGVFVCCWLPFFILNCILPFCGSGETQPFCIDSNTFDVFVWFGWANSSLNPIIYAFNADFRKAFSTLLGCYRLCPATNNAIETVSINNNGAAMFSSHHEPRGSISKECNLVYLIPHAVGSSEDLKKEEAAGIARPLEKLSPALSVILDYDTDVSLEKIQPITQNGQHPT

D1 receptor = target: T2, D1 receptor (Homo sapiens, UniProt P21728); assay: D1 Activation Adenylyl Cyclase Assay (cAMP FlashPlate, D1 transfected CHO cell line); format: cell-based
T2 construct: expressed in transfected cells; host or cells: D1 transfected CHO cell line
T2 sequence (P21728 whole entry): as the sequence (P21728 whole entry, the tested form may be a part) above
Outline: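 D1-transfected CHO cells (50,000/well) were exposed to compound 1/10 serial dilutions for 8 min at RT; cAMP measured by competitive 125I-cAMP FlashPlate against a standard curve. Response normalised between basal and saturating D1 agonist; EC50 at half-maximal stimulation, plateau reported as % maximal dopamine stimulation.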

[2] = target: human dopamine D2Long (D2L) receptors (Homo sapiens, UniProt P14416)
Chain of human dopamine D2Long (D2L) receptors (P14416 whole entry): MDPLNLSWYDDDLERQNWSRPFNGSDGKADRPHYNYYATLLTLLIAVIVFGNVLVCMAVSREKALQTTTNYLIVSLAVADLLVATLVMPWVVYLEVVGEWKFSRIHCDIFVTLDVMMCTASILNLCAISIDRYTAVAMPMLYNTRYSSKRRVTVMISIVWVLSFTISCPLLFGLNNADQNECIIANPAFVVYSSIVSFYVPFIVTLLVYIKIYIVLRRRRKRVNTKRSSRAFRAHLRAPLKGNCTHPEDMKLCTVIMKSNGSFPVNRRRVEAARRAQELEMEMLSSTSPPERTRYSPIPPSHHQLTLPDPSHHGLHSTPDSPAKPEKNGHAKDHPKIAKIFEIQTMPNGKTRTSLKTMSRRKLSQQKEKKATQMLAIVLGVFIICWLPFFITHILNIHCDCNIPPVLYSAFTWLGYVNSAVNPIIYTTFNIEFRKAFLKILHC
Experimental: [N-Methyl-^3H]Spiroperidol Binding to Cloned Human Dopamine D2Long Receptors
This assay measures the in vitro activity of drugs on cloned human dopamine D2Long (D2L) receptors and predicts the direct dopamine-displacing properties of neuropsychiatric, cardiovascular and renal agents at human dopamine D2 receptors.
Cells were maintained in Ham's F12+10% Fetal Bovine Serum+Penicillin/Streptomycin (100 U/ml/100 μg/ml)+G418 (400 μg/ml) medium and were split using Trypsin-EDTA (1 ml/plate, room temperature for ˜2 min. or until cells have lifted off plates). • 2. […] Plates are incubated at 37° C.+5% CO2 for ˜3 days or until cells were confluent.
Cells are harvested by mechanical scraping, washed using PBS collected in 250 ml Corning polypropylene centrifuge tubes, spun down and resuspended in dH2O (final volume per harvest approximately 60 ml). Protein determination is made according to the method of Lowry (Biorad DC Assay Kit). Following the determination of the protein concentration, the protein is diluted into distilled water with 10% DMSO to the appropriate volume based on expression levels (Bmax). The concentrated protein is aliquoted into 1.5 ml screw top eppendorf tubes and placed into a −80° C. freezer.
Assay Requirement: 1 cryovial per two 96 well plates
0.5M Tris Wash Buffer, pH 7.7 • a) 44.4 g Tris HCl • 26.5 g Tris Base • q.s. to 1 Liter (0.5 M Tris buffer, pH 7.7 at 37° C.) • b) make a 1:10 dilution in distilled H2O (0.05 M. Tris buffer, pH 7.7) • 2. Tris Buffer containing physiological salts • a) Stock buffer • NaCl 7.014 g • KCl 0.372 g • CaCl2 0.222 g • MgCl2 0.204 g • q.s. To 100 ml with 0.5 M. Tris Buffer • b) Dilute 1:10 in distilled H2O • This yields 0.05 M. Tris HCl, pH 7.7, containing NaCl (120 mM), KCl (5 mM), CaCl2 (2 mM) and MgCl2 (1 mM) • Optional: add 0.1% ascorbic acid and check pH (in assays with compounds that may oxidize. • c) 1.0% polyethyleneimine stock in 0.5M Tris (reagent 1.a) • Dilute 1:10 in distilled H2O Binding Assay • 750 μl Tissue • 150 μl [^3H]NMSP • 100 μl vehicle (for total binding) or 30 μM (−)
eticlopride (for nonspecific binding) or appropriate drug concentration.
The 96-Well Packard Unifilters GF/B are incubated for >1 h at 25° C. in 0.1% polyethylenimine. The cold tissue is added last and mixed on a orbital shaker for a few seconds and is then incubated at 37° C. for 30 min in a shaking water bath. The assay is stopped by rapid filtration through Packard Unifilter plates. The filter membranes are then washed with 15 ml of ice-cold 0.05 M Tris buffer. The filters are then dried (˜15 min. under a heat lamp or incubated for 15 min. in a 60° C. oven) and a bottom seal is applied. Then 40 μl of Packard Microscint 20 scintillation cocktail are added and a permanent topseal (Type P) is applied and heat sealed. The plates are placed in a Packard Topcount.
Specific binding is defined as the difference between total binding and the binding in the presence of 3 μM S-(−)-eticlopride. Total binding is approximately 10% of the total added ligand. […] The percent inhibition at each drug concentration is the mean of duplicate determinations.

[3] = competitive binding, [3H]-SCH-23390, cloned human D1 in CHO membranes, read-out: D1 affinity Ki
[4] = agonist activity at the D1 receptor, adenylate cyclase assay, D1 transfected CHO cell line, read-out: D1 EC50

SMILES	Ki [1, 3] [nM]	EC50 (D1 receptor; [4]) [nM]	Ki [2] [nM]	Ki [1] [nM]	EC50 (D1 receptor) [nM]
Cc1ccc2c(c1O)C[C@@H](C1CCN(Cc3cn(Cc4ccccc4)c4ccccc34)CC1)O[C@H]2CN [Example 91, (1R,3S)-1-Aminomethyl-3-[1-(1-benzyl-1H-indol-3-ylmethyl)-piperidin-4-yl]-6-methyl-isochroman-5-ol dihydrochloride]	40.7	12	43.4		
CNC[C@@H]1O[C@H](C2CCN(CCc3ccccc3)CC2)Cc2c1ccc(C)c2O [Example 94, (1R,3S)-6-Methyl-1-methylaminomethyl-3-(1-phenethyl-piperidin-4-yl)-isochroman-5-ol dihydrochloride]	113	35	285		
CNC[C@@H]1O[C@H](C2CCN(Cc3ccc(F)cc3)CC2)Cc2c1ccc(C)c2O [Example 95, 1R,3S)-3-[1-(4-Fluoro-benzyl)-piperidin-4-yl]-6-methyl-1-methylaminomethyl-isochroman-5-ol dihydrochloride]	121	250	456		
CNC[C@@H]1O[C@H](C2CCN(Cc3ccc(C(C)C)cc3)CC2)Cc2c1ccc(C)c2O [Example 97, (1R,3S)-3-[1-(4-Isopropyl-benzyl)-piperidin-4-yl]-6-methyl-1-methylaminomethyl-isochroman-5-ol dihydrochloride]	53.1	66	357		
CNC[C@@H]1O[C@H](C2CCN(Cc3ccc(-c4ccccc4)cc3)CC2)Cc2c1ccc(C)c2O [Example 98, (1R,3S)-3-(1-Biphenyl-4-ylmethyl-piperidin-4-yl)-6-methyl-1-methylaminomethyl-isochroman-5-ol dihydrochloride]	60.3	15	239		
CNC[C@@H]1O[C@H](C2CCN(Cc3ccc(OC)cc3)CC2)Cc2c1ccc(C)c2O [Example 99, (1R,3S)-3-[1-(4-Methoxy-benzyl)-piperidin-4-yl]-6-methyl-1-methylaminomethyl-isochroman-5-ol dihydrochloride]	53.1	22	307		
CNC[C@@H]1O[C@H](C2CCN(Cc3ccc(C)cc3)CC2)Cc2c1ccc(C)c2O [Example 101, (1R,3S)-6-Methyl-1-methylaminomethyl-3-[1-(4-methyl-benzyl)-piperidin-4-yl]-isochroman-5-ol dihydrochloride]	92.2	33	322		
Cc1ccc2c(c1O)C[C@@H](C1CCN(CCC(C)c3noc4cc(F)ccc34)CC1)O[C@H]2CN (stereo partly drawn) [Example 104, (1R,3S)-1-Aminomethyl-3-{1-[3-(6-fluoro-benzo[d]isoxazol-3-yl)butyl]piperidin-4-yl}-6-methylisochroman-5-ol dihydrochloride]	70	116	122		
Cc1ccc2c(c1O)C[C@@H](C1CCN(C/C=C/c3ccccc3)CC1)O[C@H]2CN [Example 109, (1R,3S)-1-Aminomethyl-6-methyl-3-[1-(3-phenyl-allyl)-piperidin-4-yl]-isochroman-5-ol dihydrobromide]	108	102	212		
Cc1ccc2c(c1O)C[C@@H](C1CCN(C(=O)OC(C)C)CC1)O[C@H]2CN [Example 111, 4-((1R,3S)-1-Aminomethyl-5-hydroxy-6-methyl-isochroman-3-yl)-piperidine-1-carboxylic acid isopropyl ester hydrochloride]	165	49	794		
COC(=O)N1CCC([C@@H]2Cc3c(ccc(C)c3O)[C@H](CN)O2)CC1 [Example 112, 4-((1R,3S)-1-Aminomethyl-5-hydroxy-6-methyl-isochroman-3-yl)-piperidine-1-carboxylic acid methyl ester hydrochloride]	101	0.6	≥ 100000		
Cc1ccc2c(c1O)C[C@@H](C1CCN(C(=O)Oc3ccccc3)CC1)O[C@H]2CN [Example 113, 4-((1R,3S)-1-Aminomethyl-5-hydroxy-6-methyl-isochroman-3-yl)-piperidine-1-carboxylic acid phenyl ester hydrochloride]			≥ 100000	30.5	4.2
Cc1ccc(OC(=O)N2CCC([C@@H]3Cc4c(ccc(C)c4O)[C@H](CN)O3)CC2)cc1 [Example 114, 4-((1R,3S)-1-Aminomethyl-5-hydroxy-6-methyl-isochroman-3-yl)-piperidine-1-carboxylic acid p-tolyl ester hydrochloride]			511	64.6	0.85

More lines, main results first:

Ki [1, 3] [nM]	EC50 (D1 receptor; [4]) [nM]	Ki [2] [nM]	SMILES	Ki [1] [nM]	EC50 (D1 receptor) [nM]
42	220	120	Cc1ccc2c(c1O)C[C@@H](C1CCN(Cc3cc(C(F)(F)F)cc(C(F)(F)F)c3)CC1)O[C@H]2CN [Example 75, (1R,3S)-1-Aminomethyl-3-[1-(3,5-bis-trifluoromethyl-benzyl)-piperidin-4-yl]-6-methyl-isochroman-5-ol dihydrochloride]		
92	580	41	Cc1ccc2c(c1O)C[C@@H](C1CCN(Cc3cc(C(F)(F)F)ccc3C(F)(F)F)CC1)O[C@H]2CN [Example 76, (1R,3S)-1-Aminomethyl-3-[1-(2,5-bis-trifluoromethyl-benzyl)-piperidin-4-yl]-6-methyl-isochroman-5-ol dihydrochloride]		
36	80	40	Cc1ccc2c(c1O)C[C@@H](C1CCN(Cc3cc(C(F)(F)F)ccc3Cl)CC1)O[C@H]2CN [Example 77, (1R,3S)-1-Aminomethyl-3-[1-(2-chloro-5-trifluoromethyl-benzyl)-piperidin-4-yl]-6-methyl-isochroman-5-ol dihydrochloride]		
14	2	197	Cc1ccc2c(c1O)C[C@@H](C1CCN(Cc3ccc(Cl)c(C(F)(F)F)c3)CC1)O[C@H]2CN [Example 78, (1R,3S)-1-Aminomethyl-3-[1-(4-chloro-3-trifluoromethyl-benzyl)-piperidin-4-yl]-6-methyl-isochroman-5-ol dihydrochloride]		
25.6	16	389	Cc1ccc2c(c1O)C[C@@H](C1CCN(Cc3cc4ccccc4o3)CC1)O[C@H]2CN [Example 85, (1R,3S)-1-Aminomethyl-3-(1-benzofuran-2-ylmethyl-piperidin-4-yl)-6-methyl-isochroman-5-ol dihydrochloride]		
39.9	77	97.6	Cc1ccc2c(c1O)C[C@@H](C1CCN(Cc3sc4ccccc4c3C)CC1)O[C@H]2CN [Example 86, (1R,3S)-1-Aminomethyl-6-methyl-3-[1-(3-methyl-benzo[b]thiophen-2-ylmethyl)-piperidin-4-yl]-isochroman-5-ol dihydrochloride]		
23.9	27	23.8	Cc1ccc2c(c1O)C[C@@H](C1CCN(Cc3csc4ccccc34)CC1)O[C@H]2CN [Example 87, (1R,3S)-1-Aminomethyl-6-methyl-3-(1-benzo[b]thiophen-3-ylmethyl-piperidin-4-yl)-isochroman-5-ol dihydrochloride]		
66.5	29	109	Cc1ccc2c(c1O)C[C@@H](C1CCN(Cc3cc4ccccc4n3C)CC1)O[C@H]2CN [Example 88, (1R,3S)-1-Aminomethyl-6-methyl-3-[1-(1-methyl-1H-indol-2-ylmethyl)-piperidin-4-yl]-isochroman-5-ol dihydrochloride]		
18.9	8	199	Cc1ccc2c(c1O)C[C@@H](C1CCN(Cc3c[nH]c4ccccc34)CC1)O[C@H]2CN [Example 89, (1R,3S)-1-Aminomethyl-3-[1-(1H-indol-3-ylmethyl)-piperidin-4-yl]-6-methyl-isochroman-5-ol dihydrochloride]		
42.3	9	2.4	Cc1ccc2c(c1O)C[C@@H](C1CCN(Cc3cn(C)c4ccccc34)CC1)O[C@H]2CN [Example 90, (1R,3S)-1-Aminomethyl-6-methyl-3-[1-(1-methyl-1H-indol-3-ylmethyl)-piperidin-4-yl]-isochroman-5-ol trihydrochloride]		
29.2	0.98	93.4	Cc1ccc2c(c1O)C[C@@H](C1CCN(Cc3nc4ccccc4n3C)CC1)O[C@H]2CN [Example 92, (1R,3S)-1-Aminomethyl-6-methyl-3-[1-(1-methyl-1H-benzoimidazol-2-ylmethyl)-piperidin-4-yl]-isochroman-5-ol trihydrochloride]		
43.1	60	≥ 100000	CNC[C@@H]1O[C@H](C2CCN(Cc3ccc(F)c(F)c3)CC2)Cc2c1ccc(C)c2O [Example 100, (1R,3S)-3-[1-(3,4-Difluoro-benzyl)-piperidin-4-yl]-6-methyl-1-methylaminomethyl-isochroman-5-ol dihydrochloride]		
45	29	278	Cc1ccc2c(c1O)C[C@@H](C1CCN(CCc3ccccc3)CC1)O[C@H]2CN [Example 106, (1R,3S)-1-Aminomethyl-6-methyl-3-(1-phenethyl-piperidin-4-yl)-isochroman-5-ol dihydrobromide]		
926	140	≥ 10000	Cc1ccc2c(c1O)C[C@@H](C1CCN(CCc3cccc(Cl)c3)CC1)O[C@H]2CN [Example 107, (1R,3S)-1-Aminomethyl-3-{1-[2-(3-chloro-phenyl)-ethyl]-piperidin-4-yl}-6-methyl-isochroman-5-ol dihydrobromide]		
